The record followed here is article PMC5819996 (Cell chemical biology, 2017).

For one assay, the target named is MBP-UbiB^CΔ47 (Escherichia coli, UniProt P0A6A0). As to the kind of experiment: malachite green ATPase assay. The format is biochemical. The note with it: 100 μM ATP, 4 mM MgCl2, 1 mM Triton X-100 and 2-alkylphenols, pH 7.5, 30 °C.
In another assay the target is COQ8A^NΔ250 (Homo sapiens, UniProt Q8NI60). Kind of assay: malachite green ATPase assay. The format is biochemical. The note with it: 100 μM ATP, 4 mM MgCl2, 1 mM Triton X-100 and 2-alkylphenols, pH 7.5, 30 °C.
Chain of COQ8A^NΔ250 (Q8NI60 251-647, stated change not applied): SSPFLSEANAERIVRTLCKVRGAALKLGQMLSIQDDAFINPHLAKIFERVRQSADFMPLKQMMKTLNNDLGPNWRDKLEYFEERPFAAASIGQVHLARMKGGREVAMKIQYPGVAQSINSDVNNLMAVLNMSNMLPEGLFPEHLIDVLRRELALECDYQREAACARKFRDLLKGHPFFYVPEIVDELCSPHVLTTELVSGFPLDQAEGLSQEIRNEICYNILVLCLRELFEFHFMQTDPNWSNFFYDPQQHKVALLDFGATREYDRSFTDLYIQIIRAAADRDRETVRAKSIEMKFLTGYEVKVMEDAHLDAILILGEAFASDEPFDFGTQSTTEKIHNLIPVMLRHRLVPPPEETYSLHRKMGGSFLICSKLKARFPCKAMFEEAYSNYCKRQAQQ

Chain of MBP-UbiB^CΔ47 (P0A6A0 1-499, stated change not applied): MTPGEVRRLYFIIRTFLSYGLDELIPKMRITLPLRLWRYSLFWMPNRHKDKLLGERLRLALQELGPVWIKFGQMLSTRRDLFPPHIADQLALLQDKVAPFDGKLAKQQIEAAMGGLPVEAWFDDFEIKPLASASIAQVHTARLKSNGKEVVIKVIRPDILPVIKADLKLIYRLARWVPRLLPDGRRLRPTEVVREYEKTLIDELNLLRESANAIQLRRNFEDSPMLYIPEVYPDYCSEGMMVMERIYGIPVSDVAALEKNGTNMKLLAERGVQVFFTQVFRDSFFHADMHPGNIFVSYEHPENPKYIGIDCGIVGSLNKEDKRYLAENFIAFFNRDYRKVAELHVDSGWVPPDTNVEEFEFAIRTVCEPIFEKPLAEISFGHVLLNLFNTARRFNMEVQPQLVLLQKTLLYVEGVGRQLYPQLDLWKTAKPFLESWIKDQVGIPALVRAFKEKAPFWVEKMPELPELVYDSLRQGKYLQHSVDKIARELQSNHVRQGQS

Regarding `Nc1ncnc2c1ncn2[C@@H]1O[C@H](COP(=O)(O)OP(=O)(O)OP(=O)(O)O)[C@@H](O)[C@H]1O` [ATP], the “malachite green ATPase assay” value on MBP-UbiB^CΔ47 and on COQ8A^NΔ250 was 2-alkylphenols with Triton X-100 increase the ATPase activity of UbiB family members in each case.
